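Grown in 96-well plates, cells were treated for 48 hours with each compound at five concentrations. Insufficient inhibition: endpoint recorded as highest concentration tested. The concentration for 50% growth inhibition is given as GI50. Definition used: TGI = concentration required for complete inhibition of growth.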
Legend:
Assay in all cases: NCI-60 cell line screen, 48 h
786-0 renal = test system: 786-0 renal
A549 NSCLC = test system: A549 NSCLC
ACHN renal = test system: ACHN renal
CCRF-CEM leukemia = test system: CCRF-CEM leukemia
COLO 205 colon = test system: COLO 205 colon
DU-145 prostate = test system: DU-145 prostate
EKVX NSCLC = test system: EKVX NSCLC
HCC-2998 colon = test system: HCC-2998 colon
HCT-116 colon = test system: HCT-116 colon
HCT-15 colon = test system: HCT-15 colon
HL-60(TB) leukemia = test system: HL-60(TB) leukemia
HOP-62 NSCLC = test system: HOP-62 NSCLC
HOP-92 NSCLC = test system: HOP-92 NSCLC
HS 578T breast = test system: HS 578T breast
HT29 colon = test system: HT29 colon
IGROV1 ovarian = test system: IGROV1 ovarian
K-562 leukemia = test system: K-562 leukemia
KM12 colon = test system: KM12 colon
LOX IMVI melanoma = test system: LOX IMVI melanoma
M14 melanoma = test system: M14 melanoma
MALME-3M melanoma = test system: MALME-3M melanoma
MCF7 breast = test system: MCF7 breast
MDA-MB-231 breast = test system: MDA-MB-231 breast
MDA-MB-435 = test system: MDA-MB-435
MDA-N = test system: MDA-N
MOLT-4 leukemia = test system: MOLT-4 leukemia
NCI-H226 lung = test system: NCI-H226 lung
NCI-H23 lung = test system: NCI-H23 lung
NCI-H460 lung = test system: NCI-H460 lung
NCI-H522 lung = test system: NCI-H522 lung
NCI/ADR-RES ovarian = test system: NCI/ADR-RES ovarian
OVCAR-3 ovarian = test system: OVCAR-3 ovarian
OVCAR-4 ovarian = test system: OVCAR-4 ovarian
OVCAR-5 ovarian = test system: OVCAR-5 ovarian
OVCAR-8 ovarian = test system: OVCAR-8 ovarian
PC-3 prostate = test system: PC-3 prostate
RPMI-8226 leukemia = test system: RPMI-8226 leukemia
RXF 393 renal = test system: RXF 393 renal
SF-268 CNS = test system: SF-268 CNS
SF-295 CNS = test system: SF-295 CNS
SF-539 CNS = test system: SF-539 CNS
SK-MEL-2 melanoma = test system: SK-MEL-2 melanoma
SK-MEL-28 melanoma = test system: SK-MEL-28 melanoma
SK-MEL-5 melanoma = test system: SK-MEL-5 melanoma
SK-OV-3 ovarian = test system: SK-OV-3 ovarian
SN12C renal = test system: SN12C renal
SNB-19 CNS = test system: SNB-19 CNS
SNB-75 CNS = test system: SNB-75 CNS
SR leukemia = test system: SR leukemia
SW-620 colon = test system: SW-620 colon
T-47D breast = test system: T-47D breast
TK-10 renal = test system: TK-10 renal
U251 CNS = test system: U251 CNS
UACC-257 melanoma = test system: UACC-257 melanoma
UACC-62 melanoma = test system: UACC-62 melanoma
UO-31 renal = test system: UO-31 renal
A498 renal = test system: A498 renal
CAKI-1 renal = test system: CAKI-1 renal
BT-549 breast = test system: BT-549 breast

## CCO/C=C(\C(=O)OC)S(=O)(=O)c1ccc(C)cc1
786-0 renal
  TGI: > 100 µM
A549 NSCLC
  TGI: > 100 µM
ACHN renal
  TGI: > 100 µM
CCRF-CEM leukemia
  TGI: > 100 µM
COLO 205 colon
  TGI: > 100 µM
DU-145 prostate
  TGI: > 100 µM
EKVX NSCLC
  TGI: > 100 µM
HCC-2998 colon
  TGI: > 100 µM
HCT-116 colon
  TGI: > 100 µM
HCT-15 colon
  TGI: > 100 µM
HL-60(TB) leukemia
  TGI: > 100 µM
HOP-62 NSCLC
  TGI: > 100 µM
HOP-92 NSCLC
  TGI: > 100 µM
HS 578T breast
  TGI: > 100 µM
HT29 colon
  TGI: > 100 µM
IGROV1 ovarian
  TGI: > 100 µM
K-562 leukemia
  TGI: > 100 µM
KM12 colon
  TGI: > 100 µM
LOX IMVI melanoma
  TGI: > 100 µM
M14 melanoma
  TGI: > 100 µM
MALME-3M melanoma
  TGI: > 100 µM
MCF7 breast
  TGI: > 100 µM
MDA-MB-231 breast
  TGI: > 100 µM
MDA-MB-435
  TGI: > 100 µM
MDA-N
  TGI: > 100 µM
MOLT-4 leukemia
  TGI: > 100 µM
NCI-H226 lung
  TGI: > 100 µM
NCI-H23 lung
  TGI: > 100 µM
NCI-H460 lung
  TGI: > 100 µM
NCI-H522 lung
  TGI: > 100 µM
NCI/ADR-RES ovarian
  TGI: > 100 µM
OVCAR-3 ovarian
  TGI: > 100 µM
OVCAR-4 ovarian
  TGI: > 100 µM
OVCAR-5 ovarian
  TGI: > 100 µM
OVCAR-8 ovarian
  TGI: > 100 µM
PC-3 prostate
  TGI: > 100 µM
RPMI-8226 leukemia
  TGI: > 100 µM
RXF 393 renal
  TGI: > 100 µM
SF-268 CNS
  TGI: > 100 µM
SF-295 CNS
  TGI: > 100 µM
SF-539 CNS
  TGI: > 100 µM
SK-MEL-2 melanoma
  TGI: > 100 µM
SK-MEL-28 melanoma
  TGI: > 100 µM
SK-MEL-5 melanoma
  TGI: > 100 µM
SK-OV-3 ovarian
  TGI: > 100 µM
SN12C renal
  TGI: > 100 µM
SNB-19 CNS
  TGI: > 100 µM
SNB-75 CNS
  TGI: > 100 µM
SR leukemia
  TGI: > 100 µM
SW-620 colon
  TGI: > 100 µM
T-47D breast
  TGI: > 100 µM
TK-10 renal
  TGI: > 100 µM
U251 CNS
  TGI: > 100 µM
UACC-257 melanoma
  TGI: > 100 µM
UACC-62 melanoma
  TGI: > 100 µM
UO-31 renal
  TGI: > 100 µM

## C[N+](C)(CCO)CCN1c2ccccc2Sc2ccccc21
A498 renal
  TGI: > 10 µM
A549 NSCLC
  TGI: > 10 µM
ACHN renal
  TGI: > 10 µM
CAKI-1 renal
  TGI: > 10 µM
CCRF-CEM leukemia
  TGI: > 10 µM
COLO 205 colon
  TGI: > 10 µM
DU-145 prostate
  TGI: > 10 µM
EKVX NSCLC
  TGI: > 10 µM
HCC-2998 colon
  TGI: > 10 µM
HCT-116 colon
  TGI: > 10 µM
HCT-15 colon
  TGI: > 10 µM
HL-60(TB) leukemia
  TGI: > 10 µM
HOP-62 NSCLC
  TGI: > 10 µM
HS 578T breast
  TGI: > 10 µM
HT29 colon
  TGI: > 10 µM
IGROV1 ovarian
  TGI: > 10 µM
K-562 leukemia
  TGI: > 10 µM
KM12 colon
  TGI: > 10 µM
LOX IMVI melanoma
  TGI: > 10 µM
M14 melanoma
  TGI: > 10 µM
MALME-3M melanoma
  TGI: > 10 µM
MCF7 breast
  TGI: > 10 µM
MDA-MB-231 breast
  TGI: > 10 µM
MDA-MB-435
  TGI: > 10 µM
MDA-N
  TGI: > 10 µM
MOLT-4 leukemia
  TGI: > 10 µM
NCI-H226 lung
  TGI: > 10 µM
NCI-H23 lung
  TGI: > 10 µM
NCI-H460 lung
  TGI: > 10 µM
NCI-H522 lung
  TGI: > 10 µM
NCI/ADR-RES ovarian
  TGI: > 10 µM
OVCAR-3 ovarian
  TGI: > 10 µM
OVCAR-4 ovarian
  TGI: > 10 µM
OVCAR-5 ovarian
  TGI: > 10 µM
OVCAR-8 ovarian
  TGI: > 10 µM
PC-3 prostate
  TGI: > 10 µM
RPMI-8226 leukemia
  TGI: > 10 µM
RXF 393 renal
  TGI: > 10 µM
SF-268 CNS
  TGI: > 10 µM
SF-295 CNS
  TGI: > 10 µM
SF-539 CNS
  TGI: > 10 µM
SK-MEL-2 melanoma
  TGI: > 10 µM
SK-MEL-28 melanoma
  TGI: > 10 µM
SK-MEL-5 melanoma
  TGI: > 10 µM
SK-OV-3 ovarian
  TGI: > 10 µM
SN12C renal
  TGI: > 10 µM
SNB-19 CNS
  TGI: > 10 µM
SNB-75 CNS
  TGI: > 10 µM
SR leukemia
  TGI: > 10 µM
SW-620 colon
  TGI: > 10 µM
T-47D breast
  TGI: > 10 µM
TK-10 renal
  TGI: > 10 µM
U251 CNS
  TGI: > 10 µM
UACC-62 melanoma
  TGI: > 10 µM
UO-31 renal
  TGI: > 10 µM

## CCN(CC)CC[n+]1cc2cc(OC)c(OC)cc2c2ccc3cc4c(cc3c21)OCO4
786-0 renal
  GI50: 0.903 µM
  TGI: 3.78 µM
A498 renal
  GI50: 0.514 µM
  TGI: 2.92 µM
A549 NSCLC
  GI50: 0.376 µM
  TGI: 1.84 µM
ACHN renal
  GI50: 1.25 µM
  TGI: 4.07 µM
BT-549 breast
  GI50: 1.11 µM
  TGI: 2.88 µM
CAKI-1 renal
  GI50: 1.99 µM
  TGI: 14.3 µM
CCRF-CEM leukemia
  GI50: 0.325 µM
  TGI: 20.1 µM
COLO 205 colon
  GI50: 0.418 µM
  TGI: 2.48 µM
DU-145 prostate
  GI50: 0.337 µM
  TGI: 1.96 µM
EKVX NSCLC
  GI50: 0.967 µM
  TGI: 4.04 µM
HCC-2998 colon
  GI50: 0.725 µM
  TGI: 2.15 µM
HCT-116 colon
  GI50: 0.404 µM
  TGI: 1.66 µM
HCT-15 colon
  GI50: 1.68 µM
  TGI: 4.51 µM
HL-60(TB) leukemia
  GI50: 1.42 µM
  TGI: 4.69 µM
HOP-62 NSCLC
  GI50: 0.354 µM
  TGI: 1.93 µM
HOP-92 NSCLC
  GI50: 1.37 µM
  TGI: 3.88 µM
HS 578T breast
  GI50: 0.604 µM
  TGI: 5.54 µM
HT29 colon
  GI50: 0.321 µM
  TGI: 1.36 µM
IGROV1 ovarian
  GI50: 0.649 µM
  TGI: 2.67 µM
K-562 leukemia
  GI50: 0.288 µM
KM12 colon
  GI50: 0.515 µM
  TGI: 2.46 µM
LOX IMVI melanoma
  GI50: 0.355 µM
  TGI: 0.996 µM
M14 melanoma
  GI50: 0.654 µM
  TGI: 2.31 µM
MALME-3M melanoma
  GI50: 1.1 µM
  TGI: 2.5 µM
MCF7 breast
  GI50: 0.317 µM
  TGI: 2.41 µM
MDA-MB-231 breast
  GI50: 0.709 µM
  TGI: 2.71 µM
MDA-MB-435
  GI50: 0.675 µM
  TGI: 2.14 µM
MOLT-4 leukemia
  GI50: 0.37 µM
  TGI: 4.64 µM
NCI-H226 lung
  GI50: 1.35 µM
  TGI: 3.24 µM
NCI-H23 lung
  GI50: 0.618 µM
  TGI: 2.3 µM
NCI-H460 lung
  GI50: 0.288 µM
  TGI: 1.04 µM
NCI-H522 lung
  GI50: 0.255 µM
  TGI: 1.05 µM
NCI/ADR-RES ovarian
  GI50: 3.72 µM
  TGI: 22 µM
OVCAR-3 ovarian
  GI50: 0.96 µM
  TGI: 2.33 µM
OVCAR-4 ovarian
  GI50: 0.775 µM
  TGI: 4.16 µM
OVCAR-5 ovarian
  GI50: 1.01 µM
  TGI: 3.17 µM
OVCAR-8 ovarian
  GI50: 0.314 µM
  TGI: 2.11 µM
PC-3 prostate
  GI50: 0.395 µM
  TGI: 2.25 µM
RPMI-8226 leukemia
  GI50: 0.303 µM
  TGI: 1.73 µM
RXF 393 renal
  GI50: 0.783 µM
  TGI: 2.45 µM
SF-268 CNS
  GI50: 0.386 µM
  TGI: 2.71 µM
SF-295 CNS
  GI50: 0.429 µM
  TGI: 2.36 µM
SF-539 CNS
  GI50: 1.12 µM
  TGI: 3.16 µM
SK-MEL-2 melanoma
  GI50: 1.64 µM
  TGI: 4.59 µM
SK-MEL-28 melanoma
  GI50: 1.48 µM
  TGI: 2.93 µM
SK-MEL-5 melanoma
  GI50: 1.31 µM
  TGI: 2.61 µM
SK-OV-3 ovarian
  GI50: 0.52 µM
  TGI: 2.08 µM
SN12C renal
  GI50: 0.309 µM
  TGI: 1.21 µM
SNB-19 CNS
  GI50: 0.452 µM
  TGI: 1.77 µM
SNB-75 CNS
  GI50: 0.64 µM
  TGI: 2.56 µM
SR leukemia
  GI50: 0.248 µM
  TGI: 2.12 µM
SW-620 colon
  GI50: 0.442 µM
  TGI: 2.36 µM
T-47D breast
  GI50: 0.378 µM
  TGI: 12.1 µM
TK-10 renal
  GI50: 1.81 µM
  TGI: 5.28 µM
U251 CNS
  GI50: 0.308 µM
  TGI: 1.29 µM
UACC-257 melanoma
  GI50: 1.45 µM
  TGI: 3.36 µM
UACC-62 melanoma
  GI50: 1.22 µM
  TGI: 4.89 µM
UO-31 renal
  GI50: 2.61 µM
  TGI: 8.6 µM
